Results from PMC6618152, “Abscisic acid is a substrate of the ABC transporter encoded by the durable wheat disease resistance gene Lr34” (The New Phytologist, 2019).

What was measured:
[1] = molecular target: T1, LR34res (Triticum aestivum, UniProt A0A9R1MFS8); experiment: inhibition of 3H-ABA uptake in yeast YMM12; format: cell-based; settings: 20 min preincubation, then 10 min with labelled ABA; general ABC transporter inhibitor; allele in this panel not stated, taken as LR34res
T1 construct: gene CFC21_107174; full-length cDNA from p6U:cLr34res, C-terminal HA tag, in pNEV-N; expressed in Saccharomyces cerevisiae W303 and YMM12; predicted c; 160 kDa
T1 sequence (A0A9R1MFS8 1-1401): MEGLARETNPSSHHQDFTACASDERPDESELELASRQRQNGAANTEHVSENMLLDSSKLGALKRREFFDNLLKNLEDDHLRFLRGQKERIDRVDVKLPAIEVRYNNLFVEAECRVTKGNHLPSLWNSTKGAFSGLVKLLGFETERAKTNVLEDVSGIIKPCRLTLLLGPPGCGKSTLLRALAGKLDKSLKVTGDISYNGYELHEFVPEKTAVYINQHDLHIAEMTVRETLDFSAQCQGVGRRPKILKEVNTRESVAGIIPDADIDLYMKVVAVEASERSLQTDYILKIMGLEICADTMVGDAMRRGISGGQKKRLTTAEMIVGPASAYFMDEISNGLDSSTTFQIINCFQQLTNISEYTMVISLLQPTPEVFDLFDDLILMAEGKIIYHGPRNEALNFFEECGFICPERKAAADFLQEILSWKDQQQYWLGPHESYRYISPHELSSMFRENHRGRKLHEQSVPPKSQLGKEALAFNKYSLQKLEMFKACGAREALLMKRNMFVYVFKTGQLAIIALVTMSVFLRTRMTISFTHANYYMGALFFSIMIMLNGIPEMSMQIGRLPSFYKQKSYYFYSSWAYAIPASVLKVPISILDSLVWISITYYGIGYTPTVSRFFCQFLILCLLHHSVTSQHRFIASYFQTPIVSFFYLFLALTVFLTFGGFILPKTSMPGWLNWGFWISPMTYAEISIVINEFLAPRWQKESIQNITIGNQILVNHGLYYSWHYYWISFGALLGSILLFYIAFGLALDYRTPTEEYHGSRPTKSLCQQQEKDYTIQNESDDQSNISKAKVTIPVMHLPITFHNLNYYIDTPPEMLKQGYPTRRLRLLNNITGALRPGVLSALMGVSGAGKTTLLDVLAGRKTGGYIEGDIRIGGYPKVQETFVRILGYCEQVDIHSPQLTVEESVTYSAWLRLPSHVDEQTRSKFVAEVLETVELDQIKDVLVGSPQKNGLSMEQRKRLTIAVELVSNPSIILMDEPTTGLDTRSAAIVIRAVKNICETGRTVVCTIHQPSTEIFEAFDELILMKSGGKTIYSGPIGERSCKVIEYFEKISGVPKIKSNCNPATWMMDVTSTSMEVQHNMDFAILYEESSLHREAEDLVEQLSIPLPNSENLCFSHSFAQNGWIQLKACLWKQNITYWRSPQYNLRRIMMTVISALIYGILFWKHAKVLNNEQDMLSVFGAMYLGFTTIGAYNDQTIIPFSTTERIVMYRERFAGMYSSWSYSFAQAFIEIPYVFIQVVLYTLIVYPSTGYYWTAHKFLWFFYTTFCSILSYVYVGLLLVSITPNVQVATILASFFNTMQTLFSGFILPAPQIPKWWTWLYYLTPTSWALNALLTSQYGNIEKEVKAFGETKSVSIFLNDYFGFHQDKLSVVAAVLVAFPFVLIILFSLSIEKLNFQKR

[2] = molecular target: T1, LR34res; experiment: competition of 3H-ABA uptake in LR34res-expressing yeast; format: cell-based; settings: 50 nM labelled and unlabelled ABA mixture, 10 min, pH 6.3; competition for substrate binding suggested, not proven

COc1ccc(Cl)cc1C(=O)NCCc1ccc(S(=O)(=O)NC(=O)NC2CCCCC2)cc1 [glibenclamide]
relative 3H-ABA accumulation (% of control) [1]: The ABC transporter inhibitor glibenclamide

C=C[C@](C)(O)CC[C@@H]1[C@@]2(C)CCCC(C)(C)[C@@H]2CC[C@@]1(C)O [sclareol]
% reduction of 3H-ABA uptake at 3 μM [2]: ~ 40%
